Measured values published in US8133471B2, “CLK-peptide and SLK-peptide” (New York University, priority 2003, dated 2012).

What was measured:
[1] = test system: Human endothelial cells (HUVECs); assay: Endothelial cord formation in MATRIGEL; type: cell-based; details: 0 to 100 μg/ml, 24 hours
Description: FIG. 6 Effects of CLK Peptide on HUVEC Cord Formation in MATRIGEL®. MATRIGEL was added to 96-well plates and allowed to form three-dimensional gels. […] Representative photos were taken at a magnification of 100×. A. Untreated control. B. CLK 25 μg/ml. C. CLK 50 μg/ml. D. CLK 100 μg/ml. E. Control Peptide 100 μg/ml.
The role that the CLK cryptic collagen epitope plays in regulating endothelial cell morphogenesis and cord formation, processes important in angiogenesis, were investigated. MATRIGEL was diluted in M199 medium and 300 μl were added to the wells of a 48-well culture plate and allowed to polymerize. […] Endothelial morphogenesis and cord formation was monitored with an inverted microscope fitted with a 35 mm camera to document cord formation.

P27KIP1 = P27KIP1 expression by Western blot in tumor cells on denatured collagen; type: cell-based, murine; details: 24 hours
Description: FIG. 11 Inhibition of Cellular Interactions by CLK-Peptide Enhances Expression of P27KIP1. […] A. Treatment of B16F10 melanoma cells. B. Treatment of GL261 glioblastoma cells.
To determine whether the effect on inhibition of tumor proliferation and invasion in vivo differs in malignant tumors and normal tissue, the effect of CLK-peptide on gene expression was analyzed. Genes that regulate cell cycle control, including Cyclin Dependent Kinase (CDK) inhibitors known to regulate cellular proliferation, were studied. Tumor cells (B16F10 melanoma and GL261 glioblastoma) were resuspended in adhesion buffer in the presence or absence of CLK-peptide or control. Cells were added to culture plates coated with denatured collagen and allowed to incubate for 24 hours. Total cell lysates were prepared and the relative levels of the CDK inhibitor P27^KIP1 was examined by Western Blot analysis.

[2] = test system: intact triple helical collagen type-IV; assay: Solid phase ELISA, labeled CLK-peptide binding to native collagen type-IV
Description: FIG. 15 CLK-Peptide Reacts with a Cryptic Epitope in Collagen Type-IV In Vitro. Reactivity of biotin-labeled CLK-Peptide was assessed by solid phase ELISA. Reactivity was monitored by incubation with HRP-labeled streptavidin. […] All data was corrected for nonspecific binding of HRP-labeled streptavidin only. Data bars represent the mean optical density (O.D.)±standard deviation from triplicate wells. Assays were repeated 2 to 3 times with similar results.
The CLK-peptide was labeled with HRP and used in solid phase ELISA to assess differential binding to either native or denatured collagen type-IV. Microtiter plates were coated with either native or denatured collagen type-IV and HRP-labeled CLK-peptide was allowed to bind. […] In contrast, CLK-Peptide readily bound to denatured collagen type-IV. […] To determine whether this cryptic epitope was also exposed within the ECM in vivo, biotin-labeled CLK-peptide was used to stain M21 human melanoma tumors growing in nude mice (results shown in FIGS. 16A and B and described in Example 15).

[3] = test system: denatured collagen type-IV; assay: 99Tc-CLK-Peptide competitive binding to denatured collagen type-IV (gamma counter); details: collagen 10 μg/ml; 99Tc-CLK-peptide 10 μg/ml
Description: FIG. 18 Inhibition of 99Tc-CLK-Peptide binding by unlabeled HUI77.
FIG. 19 Inhibition of Binding of Labeled CLK-Peptide to Denatured Collagen Type-IV by mAb HUI77. Denatured collagen type-IV (10 μg/ml) was coated on microtiter wells and binding of 99Tc-labeled CLK-Peptide in the presence or absence of unlabeled CLK-peptide or mAb HUI77 was measured. As shown in the figure, 99Tc-CLK-peptide (10 μg/ml, 50 μl/well) specifically binds to denatured collagen type-IV (first bar from left). […] 99Tc-CLK-peptide was also allowed to bind to denatured collagen type-IV in the presence or absence of Mab HUI77 (fourth and fifth bars from left). […] These findings provide further evidence that the CLK-peptide binds to a similar if not identical epitope recognized by Mab HUI77.
^99Tc-CLK-Peptide was used in competitive binding studies to further characterize the CLK epitope. To evaluate the ability of HUI77 to compete with binding to denatured type-IV collagen, type-IV collagen was denatured at 60° C. for 15 minutes at a concentration of […] in PBS. […] The supernatant, washes and collagen-coated wells were counted in a gamma counter (1 minute counts in duplicate).
In addition, denatured collagen type-IV (10 μg/ml) was coated on microtiter wells and binding of ^99Tc-labeled CLK-Peptide in the presence or absence of either unlabeled CLK-peptide or mAb HUI77 was measured using a gamma counter. […]

GL261 tumor cells = assay: GL261 cell migration on denatured collagen type-IV (transwell); type: cell-based, murine; details: 50 μg/ml; 6 hours; versus controls
Description: FIG. 22 Effects of CLK-Peptide on Tumor Cell Migration. In cell migration assays, CLK-peptide (50 μg/ml) inhibited GL261 cell migration on denatured collagen type-IV by approximately 50% as compared to control.
The effects of CLK-peptide on invasive tumor cell migration and proliferation in vitro were examined. Membranes from transwell chambers and microtiter wells (in proliferation assays) were coated with denatured collagen type-IV (10 μg/ml). GL261 cells were resuspended in either migration buffer or proliferation buffer in the presence or absence of CLK-peptide or control (50 μg/ml). In the cell migration experiments, GL261 tumor cells were allowed to migrate for 6 hours. Tumor cells that had migrated to the underside of the coated membranes were quantified by staining with crystal violet, and the optical densities of cell-associated dye were measured with a microplate reader at a wavelength of 600 nm.

Substance: H-CLKQNGGNFSLG-OH [CLK-peptide, NH2-C-L-K-Q-N-G-G-N-F-S-L-G-COOH]
- effect on endothelial cord formation [1]: dose-dependently inhibited
- P27KIP1 level (P27KIP1; B16F10 melanoma cells on denatured collagen): dramatic upregulation
- P27KIP1 level (P27KIP1; GL261 glioblastoma cells on denatured collagen): dramatic upregulation
- binding to intact triple helical collagen type-IV [2]: little if any binding
- inhibition of 99Tc-CLK-peptide binding to denatured collagen type-IV [3]: dose-dependent inhibition
- inhibition of GL261 cell migration on denatured collagen type-IV (GL261 tumor cells): approximately 50%
